Consider one compound from ChEMBL document CHEMBL3832042, “DailyMed|setid=5d4f90d4-e535-4681-a863-3d774a2064e6 | ANASTROZOLE - anastrozole tablet|PD-Rx Pharmaceuticals, Inc”.

Several values for one entry are separate records, joined by “and”; a condition that tells them apart may be missing. Equal entries are not always repeated.

The test system of one data set is Homo sapiens. The data set is described as follows: Evaluation of pharmacokinetic parameters for Anastrazole following multiple oral administration of Anastrazole to Caucasian and to Japanese female subjects. The settings on record: in vivo, dose 1 mg, dosed compound id 24, dosed compound name ANASTROZOLE, gender female, regimen every 24h, study dosing duration 16 days, tissue Plasma. The data set is classed as ADME, organism-based.

The nature of data set [1]: Evaluation of pharmacokinetic parameters for Anastrazole following single oral administration of Anastrazole to subjects under fatsed and fed conditions. Conditions: human, in vivo.

Consider `CC(C)(C#N)c1cc(Cn2cncn2)cc(C(C)(C)C#N)c1` [ANASTROZOLE], for which the Cmin ss in the data set with Homo sapiens is 30.4 ng/mL and 25.7 ng/mL. The same compound showed a half-life in data set [1] of 50 h.

Broadly, the half-life is the time needed for the level to fall by half in the phase considered.
